Source: paper PMC6753678, “Fueling Open Innovation for Malaria Transmission-Blocking Drugs: Hundreds of Molecules Targeting Early Parasite Mosquito Stages” (Frontiers in Microbiology, 2019)
Where two headings read alike, the source gives them in different places.

Experiments:
[1] = tested on: 3D7-strain P. falciparum asexual parasites; test: P. falciparum asexual growth inhibition assay (Pf GIA); type: cell-based, Plasmodium falciparum; details: dose response confirmation; read-out: Pf asexual growth inhibition assays IC50
How it was run: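 Parasites at 0.25% parasitemia, 2% hematocrit in Albumax-supplemented RPMI were exposed to compounds in dose response for 72 h at 37°C under 5% CO2/5% O2. Viability was read as LDH activity (NBT/diaphorase, A650 after freeze-thaw). Percent inhibition was calculated against chloroquine and DMSO controls, mean of three biological replicates.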

HepG2 cells = test: HepG2 cytotoxicity assay; details: for IC50: read-out: HepG2 cytotoxicity assay IC50, dose response confirmation; for Unified cytotox: unified HepG2 value across the three screens; for Pb ODA (this manuscript) HepG2 cytoxicity: HepG2 cytotoxicity listed with the Pb ODA data set (this manuscript)
How it was run: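 Here viability after a 48 h compound incubation (37°C, humidified 5% CO2) is measured by fluorescence and expressed as percent inhibition, with doxorubicin at 50 μM and DMSO as the bounding controls.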

[2] = tested on: P. berghei ookinete development; details: for % inhibition, Replicate A / % inhibition, Replicate B: primary screen at 1 μM
[3] = read-out: Pb ODA IC50, this manuscript
[4] = read-out: Pb Ookinete development assay IC50, dose response confirmation
[5] = read-out: Pb ODA (this manuscript) IC50, P. berghei ookinete development assay, this manuscript

Compound | IC50 [1] [nM] | IC50 (HepG2 cells) [nM] | Unified cytotox (HepG2 cells) [µM] | Is compound selective in assay? Pb ODA active? ([2]; 1: YES, 0: NO) | % inhibition, Replicate A [2] [%] | % inhibition, Replicate B [2] [%] | IC50 [2, 3] [nM] | IC50 [2, 4] [nM] | Pb ODA (this manuscript) HepG2 cytoxicity (HepG2 cells) [µM] | Is compound selective in assay? Pb ODA active? [2] | % inhibition, Replicate A ([2]; 1 µM) [%] | % inhibition, Replicate B ([2]; 1 µM) [%] | IC50 [2, 5] [nM]
Cc1noc(C)c1-c1cccc(CNCc2ccc(-c3cccc(-c4nc5cc(F)ccc5[nH]4)c3)cc2)c1.O=C(O)C(F)(F)F [TCMDC-133060] | 1300 | 15500 | 15.49 | 0 (0: NO) | 12.93 | 53.61 | 13700 | 13700 | – | – | – | – | –
Cc1noc(C)c1-c1cccc(CNCc2ccc(-c3ccc(-c4nc5cccc(C)c5[nH]4)cc3)cc2)c1.O=C(O)C(F)(F)F [TCMDC-133061] | 120 | 7940 | 7.94 | 0 (0: NO) | 50.05 | 37.24 | 2660 | 2660 | – | – | – | – | –
Cc1cc(=O)c(-c2ccc(Oc3cccc(C(F)(F)F)c3)cc2)c(C)[nH]1 [TCMDC-133308] | 385 | 14400 | – | – | – | – | – | 733 | 14.45 | 1 (key: 1: YES; 0: NO) | 59.11 | 56.29 | 730
COc1ccc(-c2cnc(N)c(-c3ccc(C(N)=O)cc3)c2)cc1OC [TCMDC-133349] | 666 | 100000 | 100.00 | 1 (1: YES) | 68.77 | 82.48 | 430 | 426 | – | – | – | – | –
O=C(Nc1ccc(OC2CCN(Cc3ccc(F)cc3)CC2)c(Cl)c1)c1cccs1.O=C(O)C(F)(F)F [TCMDC-133746] | 242 | 38900 | – | – | 51.32 | 44.22 | – | 1160 | 38.90 | 1 (key: 1: YES; 0: NO) | – | – | 1160
O=C(Nc1ccc(OC2CCN(Cc3ccc(F)cc3)C2)c(Cl)c1)c1cccs1.O=C(O)C(F)(F)F (stereo not shown) [TCMDC-133757] | 187 | 25100 | 25.12 | 1 (1: YES) | 48.09 | 57.60 | 1910 | 1910 | – | – | – | – | –
O=C(Nc1ccc(OC2CCN(Cc3ccc(F)cc3)C2)c(Cl)c1)c1ccc(F)cc1.O=C(O)C(F)(F)F (stereo not shown) [TCMDC-133763] | 878 | 24600 | 24.55 | 0 (0: NO) | 33.23 | 66.02 | 2950 | 2950 | – | – | – | – | –
CNC(=O)c1ccccc1Nc1nc(Nc2ccc(CCN3CCN(C)CC3)cc2)ncc1Cl.Cl [TCMDC-133800] | 402 | 2260 | – | – | 66.37 | 76.75 | – | 2320 | 2.26 | 0 (key: 1: YES; 0: NO) | – | – | 2310
Cc1cccc2nc(-c3ccc(-c4ccc(CN5CC(C)OC(C)C5)cc4)cc3)[nH]c12.O=C(O)C(F)(F)F (stereo not shown) [TCMDC-133823] | 168 | 15100 | – | – | 122.68 | 88.91 | – | 434 | 15.14 | 1 (key: 1: YES; 0: NO) | – | – | 430
Cc1cccc2nc(-c3ccc(-c4ccc(CN5CCOCC5)cc4)cc3)[nH]c12.O=C(O)C(F)(F)F [TCMDC-133825] | 2230 | 27500 | – | – | 75.48 | 125.42 | – | 635 | 27.54 | 1 (key: 1: YES; 0: NO) | – | – | 630
Cc1cccc2nc(-c3ccc(-c4ccc(CN5CCCC(O)C5)cc4)cc3)[nH]c12.O=C(O)C(F)(F)F (stereo not shown) [TCMDC-133826] | 1480 | 12900 | – | – | 58.08 | 28.26 | – | 9270 | 12.88 | 0 (key: 1: YES; 0: NO) | – | – | –
CC1CN(Cc2ccc(-c3ccc(-c4nc5ccccc5[nH]4)cc3)cc2)CC(C)O1.O=C(O)C(F)(F)F (stereo not shown) [TCMDC-133828] | 1140 | 30200 | – | – | 97.54 | 72.23 | – | 868 | 30.20 | 1 (key: 1: YES; 0: NO) | – | – | 870
CC1CN(Cc2ccc(-c3ccc(-c4nc5cc(F)ccc5[nH]4)cc3)cc2)CC(C)O1.O=C(O)C(F)(F)F (stereo not shown) [TCMDC-133831] | 1220 | 24600 | – | – | 81.24 | 52.13 | – | 1180 | 24.55 | 1 (key: 1: YES; 0: NO) | – | – | –
N#Cc1ccc(CN2CCC(Oc3ccc(NC(=O)c4cccs4)cc3Cl)CC2)cc1.O=C(O)C(F)(F)F [TCMDC-133955] | 600 | 36300 | – | – | 56.20 | 46.08 | – | 4360 | 36.31 | 0 (key: 1: YES; 0: NO) | – | – | 4360
CC(C)CCN1CCC(Oc2ccc(NC(=O)c3cccs3)cc2Cl)CC1.O=C(O)C(F)(F)F [TCMDC-133974] | 660 | 21400 | – | – | 38.26 | 57.89 | – | 1450 | 21.38 | 1 (key: 1: YES; 0: NO) | – | – | 1450
CNC(=O)c1cc(F)c(F)cc1Nc1nc(Nc2cccc(CS(C)(=O)=O)c2)ncc1Cl.O=CO [TCMDC-134060] | 1570 | 100000 | – | – | 53.04 | 41.11 | – | 2150 | 100.00 | 1 (key: 1: YES; 0: NO) | – | – | 2150
CN1CCN(c2ccc(Nc3ncc(C#N)c(Nc4ccccc4C(N)=O)n3)cc2)CC1.Cl [TCMDC-134116] | 28 | 2430 | – | – | 134.36 | 120.59 | – | 32 | 2.43 | 1 (key: 1: YES; 0: NO) | – | – | 31.6
COc1ccc(Nc2ncc(C#N)c(Nc3ccccc3C(N)=O)n2)cc1N1CCN(C)CC1.Cl [TCMDC-134117] | 63 | 8320 | – | – | 92.85 | 98.42 | – | 26 | 8.32 | 1 (key: 1: YES; 0: NO) | – | – | 25.5
